Laboratory results as given in patent publication US10457667B2, “Indolin-2-one derivatives” (Hoffmann-La Roche Inc., priority 2015, dated 2019).

These compounds were tested on L-687,414-induced hyperlocomotion (assay: L-687,414-induced hyperlocomotion). Details: mice; dose 30 mg/kg ip, 15 min before s.c. 50 mg/kg L-687,414.
Assay type: in vivo, mouse
Description: The described compounds of formula I reduce L-687,414-induced hyperlocomotion. This was assessed by using a computerized Digiscan 16 Animal Activity Monitoring System (Omnitech Electronics, Columbus, Ohio) to quantify locomotor activity. Animals were kept under a 12 h light/dark cycle and experiments were performed during the light period. Each activity monitoring chamber consisted of a Plexiglas box (41×41×28 cm; W×L×H) with sawdust bedding on the floor surrounded by invisible horizontal and vertical infrared sensor beams. The test boxes were divided by a Plexiglas cross providing each mouse with 20×20 cm of moving space. Cages were connected to a Digiscan Analyzer linked to a computer that constantly collected the beam status information. Records of photocell beam interruptions for individual animals were taken every 5 min over the duration of the experimental session and the sum of the first 6 periods was used as the final parameter. At least 8 mice were used in each treatment group. Compounds were administered i.p 15 min before a s.c. injection of 50 mg/kg of L-687,414. […] Horizontal activity was then recorded for a 30-min time period. The % inhibition of L-687,414-induced hyperlocomotion was calculated according to the equation: ((Veh+L−687,414 horizontal activity−drug+L−687,414 horizontal activity)/Veh+L−687,414 horizontal activity)×100 […]
With `COc1ccc(N2C(=O)C(C)(C)c3ccc(-c4cnc(C)nc4)cc32)nn1` [Example 12, 1-(6-Methoxypyridazin-3-yl)-3,3-dimethyl-6-(2-methylpyrimidin-5-yl)indolin-2-one] the “Inhibition, ip of L-687,414-induced hyperlocomotion” value was 94.6%.

These compounds were tested on behaviors of compound-treated mice (assay: SmartCube behavioral signature similarity analysis). Details: SmartCube; test compound at 3 mg/kg i.p.; rate of 0.70 or lower = similar.
Assay type: in vivo, mouse
From the text: authors described that hyperlocomotion induced by L-687,414 was inhibited by a series of known antipsychotic drugs. […] These findings predict antipsychotic activity for the present compounds, making them useful for the treatment of positive (psychosis) and negative symptoms of schizophrenia, substance abuse, alcohol and drug addiction, obsessive-compulsive disorders, cognitive impairment, bipolar disorders, mood disorders, major depression, resistant depression, anxiety disorders, Alzheimer's disease, autism, Parkinson's disease, chronic pain, borderline personality disorder, sleep disturbances, chronic fatigue syndrome, stiffness, antiinflammatory effects in arthritis and balance problems, epilepsy and neurodevelopmental disorders with co morbid epilepsy. In addition to the reversal of L-687,414 induced hyperlocomotion experiment as described above, some compounds of the present invention have been tested in SmartCube®, an automated system in which the behaviors of compound-treated mice in response to multiple challenges are captured by digital video and analyzed with computer algorithms (Roberds et al., Frontiers in Neuroscience, 2011, Vol. 5, Art. 103, 1-4; Vadim Alexandrov, Dani Brunner, Taleen Hanania, Emer Leahy Eur. J. Pharmacol. 2015, 750, 82-99). In this way, the neuro-pharmacological effects of a test compound can be predicted by similarity to major classes of compounds, such as antipsychotics, anxiolytics and antidepressants.
SmartCube® was used to compare the behavioral signature of a test compound to a database of behavioral signatures obtained from a large set of clinically approved reference drugs, grouped per indications. In this way, the neuro-pharmacological effects of a test compound can be predicted by similarity to major classes of compounds, such as antipsychotics, anxiolytics and antidepressants. This approach is ideally suited to screen collections of existing drugs or drug candidates with previously unknown neuropharmacology, which could expedite the development of new and unexpected treatments for psychiatric disorders.
Some compounds of the present invention were injected i.p. at different doses 15 minutes before the test. At least 8 mice were used in each treatment group. Digital videos of the subjects were processed with computer vision algorithms to extract over 2000 dependent measures including frequency and duration of many different behavioral states. The results of the classifications are presented as bar charts for each compound and dose (mg/kg), the Y-axis indicates the relative probability that the test compound will show efficacy in the specific CNS indication.
Compounds of the present invention show similar signatures to those of atypical antipsychotics. An independent analysis was performed on the unclassified data to determine the similarity of the example compounds to active doses of known atypical antipsychotics. For this analysis, we use discrimination rate as the measure of separability between the two drugs, i.e. one drug's “distinguishability” from another. A rate equal to 50% (or 0.5) corresponds to zero distinguishability. […] In most cases, the example compounds show a similarity to risperidone, clozapine and olanzapine with a discrimination rate of ≤0.70.
With `COc1ccc(N2C(=O)C(C)(C)c3ccc(-c4cnc(C)nc4)cc32)nn1` [Example 12, 1-(6-Methoxypyridazin-3-yl)-3,3-dimethyl-6-(2-methylpyrimidin-5-yl)indolin-2-one] the “discrimination rate vs Clozapine (1.0 mg/kg)” value was 0.67, the “discrimination rate vs Olanzapine (0.25 mg/kg)” value was 0.63 and the “discrimination rate vs Risperidone (0.06 mg/kg)” value was 0.56.

Same assay, conditions: mice; result in words
With `COc1ccc(N2C(=O)C(C)(C)c3ccc(-c4cnc(C)nc4)cc32)nn1` [Example 12, 1-(6-Methoxypyridazin-3-yl)-3,3-dimethyl-6-(2-methylpyrimidin-5-yl)indolin-2-one] the “SmartCube behavioral signature classification” value was “similarity to atypical antipsychotics”.

What follows are compounds tested against T1, mouse ENT-1 transporter (Mus musculus, UniProt Q9JIM1) (assay: ENT1 adenosine uptake inhibition ([3H]-adenosine transport activity)). Details: stable cells expressing mouse ENT-1; [2,8-3H]-adenosine 6 nM, 20 min.
T1 construct: expressed in transfected cells
T1 sequence (Q9JIM1 1-460): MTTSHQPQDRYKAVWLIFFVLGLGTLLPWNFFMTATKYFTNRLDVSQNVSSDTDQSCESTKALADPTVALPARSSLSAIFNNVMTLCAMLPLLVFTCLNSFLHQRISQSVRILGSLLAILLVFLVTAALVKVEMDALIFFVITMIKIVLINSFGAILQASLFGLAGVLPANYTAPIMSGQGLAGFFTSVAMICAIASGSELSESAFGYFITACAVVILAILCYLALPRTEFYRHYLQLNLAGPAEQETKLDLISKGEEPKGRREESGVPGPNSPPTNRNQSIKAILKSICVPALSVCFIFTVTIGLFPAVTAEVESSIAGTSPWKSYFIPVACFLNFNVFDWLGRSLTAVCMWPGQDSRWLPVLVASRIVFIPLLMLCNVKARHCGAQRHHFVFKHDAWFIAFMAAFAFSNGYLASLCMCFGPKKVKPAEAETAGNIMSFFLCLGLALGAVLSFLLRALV
Assay type: cell-based
Description: To measure adenosine transport activity of ENT-1 mammalian cells, stable cells expressing the mouse ENT-1 transporter were plated on day 1 in 96-well culture plates at the density of 60,000 cells/well, in complete DMEM/F12 medium supplemented with glutamax, 10% FBS and 10 μg/ml puromycin. On day 2, the medium was aspirated and the cells were washed twice with uptake buffer (10 mM Hepes-Tris, pH 7.4 containing 150 mM NaCl, 1 mM CaCl2, 2.5 mM KCl, 2.5 mM MgSO4, 10 mM D-glucose) (UB). For inhibition experiments, cells were then incubated at RT with various concentrations of compounds with 1% DMSO final. Non-specific uptake was defined in the presence of 10 μM S-(4-Nitrobenzyl)-6-thioinosine (NBTI, Sigma Cat #N2255).
A solution containing [2,8-^3H]-adenosine 6 nM (40 Ci/mmol, American Radiolabeled chemicals Inc, Cat #ART 0287A) was then immediately added to the wells. The plates were then incubated for 20 min with gentle shaking and the reaction was stopped by aspiration of the mixture and washing (three times) with ice-cold UB. The cells were lysed by the addition of scintillation liquid, shaken 3 hours and the radioactivity in the cells was estimated using a microplates scintillation counter (TopCount NXT, Packard).
In the case of `Cc1ncc(-c2ccc3c(c2)N(c2cnc4c(c2)OCCN4)C(=O)C3(C)C)cn1` [Example 8, 1-(3,4-Dihydro-2H-pyrido[3,2-b][1,4]oxazin-7-yl)-3,3-dimethyl-6-(2-methylpyrimidin-5-yl)indolin-2-one], the IC50 is reported as 951 nM. Compound `Cc1ncc(-c2ccc3c(c2)N(c2ccc4onc(C)c4c2)C(=O)C3(C)C)cn1` [Example 18, 3,3-Dimethyl-1-(3-methylbenzo[d]isoxazol-5-yl)-6-(2-methylpyrimidin-5-yl)indolin-2-one] has an IC50 of 50.9 nM. Work on `COc1ncc(N2C(=O)C(C)(C)c3ccc(-c4cnc(C)nc4)cc32)cn1` [Example 15, 1-(2-Methoxypyrimidin-5-yl)-3,3-dimethyl-6-(2-methylpyrimidin-5-yl)indolin-2-one] yielded an IC50 of 843 nM. For `Cc1ncc(-c2ccc3c(c2)N(c2cncc(OC(C)C)c2)C(=O)C3(C)C)cn1` [Example 7, 1-(5-Isopropoxypyridin-3-yl)-3,3-dimethyl-6-(2-methylpyrimidin-5-yl)indolin-2-one], the IC50 was 183 nM. In the case of `Cc1ncc(-c2ccc3c(c2)N(c2ccc(O)nn2)C(=O)C3(C)C)cn1` [Example 13, 1-(6-Hydroxypyridazin-3-yl)-3,3-dimethyl-6-(2-methylpyrimidin-5-yl)indolin-2-one], the IC50 is reported as 615 nM. With `COc1cncc(N2C(=O)C3(CCC3)c3ccc(-c4cnc(C)nc4)cc32)c1` [Example 19, 1′-(5-Methoxypyridin-3-yl)-6′-(2-methylpyrimidin-5-yl)spiro[cyclobutane-1,3′-indolin]-2′-one] the IC50 was 785 nM. `COc1cnc(N2C(=O)C(C)(C)c3ccc(-c4cnc(C)nc4)cc32)cn1` [Example 11, 1-(5-Methoxypyrazin-2-yl)-3,3-dimethyl-6-(2-methylpyrimidin-5-yl)indolin-2-one] gave an IC50 of 272 nM. `COc1cc(N2C(=O)C(C)(C)c3ccc(-c4cnc(C)nc4)cc32)cnc1Cl` [Example 9, 1-(6-Chloro-5-methoxypyridin-3-yl)-3,3-dimethyl-6-(2-methylpyrimidin-5-yl)indolin-2-one] showed an IC50 of 154 nM. Work on `COc1cncc(N2C(=O)C(C)(C)c3ccc(-c4cnc(C)nc4)cc32)n1` [Example 1, 1-(6-Methoxypyrazin-2-yl)-3,3-dimethyl-6-(2-methylpyrimidin-5-yl)indolin-2-one] yielded an IC50 of 73 nM. Work on `Cc1ncc(-c2ccc3c(c2)N(c2ccc(OCC(F)(F)F)nc2)C(=O)C3(C)C)cn1` [Example 16, 3,3-Dimethyl-6-(2-methylpyrimidin-5-yl)-1-(6-(2,2,2-trifluoroethoxy)pyridin-3-yl)indolin-2-one] yielded an IC50 of 811 nM. With `COc1cccc(N2C(=O)C(C)(C)c3ccc(-c4cnc(C)nc4)cc32)c1` [Example 6, 1-(3-Methoxyphenyl)-3,3-dimethyl-6-(2-methylpyrimidin-5-yl)indolin-2-one] the IC50 was 289 nM. `COc1ccc(N2C(=O)C(C)(C)c3ccc(-c4cnc(C)nc4)cc32)nn1` [Example 12, 1-(6-Methoxypyridazin-3-yl)-3,3-dimethyl-6-(2-methylpyrimidin-5-yl)indolin-2-one] was tested, and the IC50 was 34.8 nM. For `Cc1ncc(-c2ccc3c(c2)N(c2ccc(OC(F)(F)F)cn2)C(=O)C3(C)C)cn1` [Example 14, 3,3-Dimethyl-6-(2-methylpyrimidin-5-yl)-1-(5-(trifluoromethoxy)pyridin-2-yl)indolin-2-one], the IC50 was 118 nM. `COc1cc(N2C(=O)C(C)(C)c3ccc(-c4cnc(C)nc4)cc32)cnc1C` [Example 3, 1-(5-Methoxy-6-methylpyridin-3-yl)-3,3-dimethyl-6-(2-methylpyrimidin-5-yl)indolin-2-one] was tested, and the IC50 was 242 nM. Work on `Cc1ncc(-c2ccc3c(c2)N(c2cnc(OC4COC4)nc2)C(=O)C3(C)C)cn1` [Example 17, 3,3-Dimethyl-6-(2-methylpyrimidin-5-yl)-1-(2-(oxetan-3-yloxy)pyrimidin-5-yl)indolin-2-one] yielded an IC50 of 823 nM. `COc1cc(N2C(=O)C(C)(C)c3ccc(-c4cnc(C)nc4)cc32)nc(OC)n1` [Example 4, 1-(2,6-Dimethoxypyrimidin-4-yl)-3,3-dimethyl-6-(2-methylpyrimidin-5-yl)indolin-2-one] gave an IC50 of 110 nM. With `CCOc1cncc(N2C(=O)C(C)(C)c3ccc(-c4cnc(C)nc4)cc32)c1` [Example 5, 1-(5-Ethoxypyridin-3-yl)-3,3-dimethyl-6-(2-methylpyrimidin-5-yl)indolin-2-one] the IC50 was 64.3 nM. In the case of `COc1ccc(N2C(=O)C3(CCC3)c3ccc(-c4cnc(C)nc4)cc32)nn1` [Example 20, 1′-(6-Methoxypyridazin-3-yl)-6′-(2-methylpyrimidin-5-yl)spiro[cyclobutane-1,3′-indolin]-2′-one], the IC50 is reported as 130 nM. Compound `COc1cc(N2C(=O)C(C)(C)c3ccc(-c4cnc(C)nc4)cc32)cnc1C1CC1` [Example 10, 1-(6-Cyclopropyl-5-methoxypyridin-3-yl)-3,3-dimethyl-6-(2-methylpyrimidin-5-yl)indolin-2-one] has an IC50 of 139 nM.
